Measurements from article PMC6364417, “Kinase inhibitor library screening identifies synergistic drug combinations effective in sensitive and resistant melanoma cells” (Journal of Experimental & Clinical Cancer Research : CR, 2019).
Where a name gives a salt, the structure may show the parent alone.

Assays:
Test in all cases: Kinase inhibitor library screening, PrestoBlue cell viability, 1 or 10 μM, 72 h
[1] = system: 501Mel-XP cells (Vemurafenib-resistant); details: 72 h; for viability at 1 µM / viability at 10 µM: Homo sapiens; for viability at 1 µM: read-out: cell viability, 501Mel XP, 1μΜ; for viability at 10 µM: read-out: cell viability, 501Mel XP, 10μΜ
Procedure: (§1) After 72 h of treatment, cell viability was assessed using the PrestoBlue Cell Viability Reagent (ThermoFisher Scientific). Measurements were performed with the CLARIOstar Monochromator microplate reader (BMG Labtech).
(§2) Kinase inhibitor library screening. […] Each cell line was treated in its sensitive form (parental), and also as 2 resistant derivatives, which were made resistant to either Vemurafenib (XP) or Dabrafenib (GP). Drugs were added at 2 different concentrations, 1 and 10 μM, for 72 h and cell viability was assessed using the PrestoBlue Cell Viability assay. Results are depicted as % viability compared to untreated cells. Each cell line was analyzed at least in duplicate. […] (XLSX 95 kb)

[2] = system: 501Mel-GP cells (Dabrafenib-resistant); details: 72 h; for viability at 1 µM / viability at 10 µM: Homo sapiens; for viability at 1 µM: read-out: cell viability, 501Mel GP, 1μΜ; for viability at 10 µM: read-out: cell viability, 501Mel GP, 10μΜ
Procedure: as §1, §2

A375 cells (parental) = details: for cell viability, A375 Parental, 1μΜ / cell viability, A375 Parental, 10μΜ: in %; for viability at 1 µM / viability at 10 µM: Homo sapiens, A-375, 72 h; for viability at 1 µM: read-out: cell viability, A375 Parental, 1μΜ; for viability at 10 µM: read-out: cell viability, A375 Parental, 10μΜ
Procedure: as §1, §2

[3] = system: A375-GP cells (Dabrafenib-resistant); details: for viability at 1 µM / viability at 10 µM: Homo sapiens, A-375, 72 h; for viability at 1 µM: read-out: cell viability, A375 GP, 1μΜ; for viability at 10 µM: read-out: cell viability, A375 GP, 10μΜ
Procedure: as §1, §2

[4] = system: IGR37-XP cells (Vemurafenib-resistant); details: for viability at 1 µM / viability at 10 µM: Homo sapiens, IGR-37, 72 h; for viability at 1 µM: read-out: cell viability, IGR37 XP, 1μΜ; for viability at 10 µM: read-out: cell viability, IGR37 XP, 10μΜ
Procedure: as §1, §2

[5] = system: IGR37-GP cells (Dabrafenib-resistant); details: for viability at 1 µM / viability at 10 µM: Homo sapiens, IGR-37, 72 h; for viability at 1 µM: read-out: cell viability, IGR37 GP, 1μΜ; for viability at 10 µM: read-out: cell viability, IGR37 GP, 10μΜ
Procedure: as §1, §2

[6] = system: A375-XP cells (Vemurafenib-resistant); details: for viability at 1 µM / viability at 10 µM: Homo sapiens, A-375, 72 h; for viability at 1 µM: read-out: cell viability, A375 XP, 1μΜ; for viability at 10 µM: read-out: cell viability, A375 XP, 10μΜ
Procedure: as §1, §2

501Mel cells (parental) = details: 72 h; for viability at 1 µM / viability at 10 µM: Homo sapiens; for viability at 1 µM: read-out: cell viability, 501Mel Parental, 1μΜ; for viability at 10 µM: read-out: cell viability, 501Mel Parental, 10μΜ
Procedure: as §1, §2

IGR37 cells (parental) = details: for viability at 1 µM / viability at 10 µM: Homo sapiens, IGR-37, 72 h; for viability at 1 µM: read-out: cell viability, IGR37 Parental, 1μΜ; for viability at 10 µM: read-out: cell viability, IGR37 Parental, 10μΜ
Procedure: as §1, §2

[7] = IGR37 Parental, 1μΜ, 72 h, in %
[8] = IGR37 Parental, 10μΜ, 72 h, in %

## CCc1cccc(CC)c1NC(=O)N1Cc2n[nH]c(NC(=O)c3ccc(N4CCN(C)CC4)cc3)c2C1 [PHA-680632]
[1]; 501Mel XP, 1μΜ
  cell viability (kinase inhibitor library screening): 96.6%
[1]; 501Mel XP, 10μΜ
  cell viability (kinase inhibitor library screening): 75.1%
[2]; 501Mel GP, 1μΜ
  cell viability (kinase inhibitor library screening): 105.0%
[2]; 501Mel GP, 10μΜ
  cell viability (kinase inhibitor library screening): 79.1%
A375 cells (parental); A375 Parental, 10μΜ, 72 h
  cell viability (kinase inhibitor library screening): 37.5%
A375 cells (parental); A375 Parental, 1μΜ, 72 h
  cell viability (kinase inhibitor library screening): 85.1%
[3]; A375 GP, 1μΜ, 72 h
  cell viability (kinase inhibitor library screening): 81.0%
[3]; A375 GP, 10μΜ, 72 h
  cell viability (kinase inhibitor library screening): 37.4%
[4]; IGR37 XP, 1μΜ, 72 h
  cell viability (kinase inhibitor library screening): 96.4%
[4]; IGR37 XP, 10μΜ, 72 h
  cell viability (kinase inhibitor library screening): 40.2%
[5]; IGR37 GP, 1μΜ, 72 h
  cell viability (kinase inhibitor library screening): 92.2%
[5]; IGR37 GP, 10μΜ, 72 h
  cell viability (kinase inhibitor library screening): 78.7%
[6]; A375 XP, 1μΜ, 72 h
  cell viability (kinase inhibitor library screening): 93.5%
[6]; A375 XP, 10μΜ, 72 h
  cell viability (kinase inhibitor library screening): 51.3%
501Mel cells (parental); 501Mel Parental, 1μΜ
  cell viability (kinase inhibitor library screening): 104.0%
501Mel cells (parental); 501Mel Parental, 10μΜ
  cell viability (kinase inhibitor library screening): 95.7%
IGR37 cells (parental); IGR37 Parental, 1μΜ, 72 h
  cell viability (kinase inhibitor library screening): 93.9%
IGR37 cells (parental); IGR37 Parental, 10μΜ, 72 h
  cell viability (kinase inhibitor library screening): 73.1%

## COc1cc2c(N3CCN(C(=O)Nc4ccc(OC(C)C)cc4)CC3)ncnc2cc1OCCCN1CCCCC1 [Tandutinib (MLN518)]
[1]; 501Mel XP, 1μΜ, in %
  cell viability, 501Mel XP, 1μΜ: 94.1
[1]; 501Mel XP, 10μΜ, in %
  cell viability, 501Mel XP, 10μΜ: 71.2
[2]; 501Mel GP, 1μΜ, in %
  cell viability, 501Mel GP, 1μΜ: 103.5
[2]; 501Mel GP, 10μΜ, in %
  cell viability, 501Mel GP, 10μΜ: 85.5
A375 cells (parental); A375 Parental, 1μΜ, 72 h
  cell viability, A375 Parental, 1μΜ: 106.1
A375 cells (parental); A375 Parental, 10μΜ, 72 h
  cell viability, A375 Parental, 10μΜ: 89.7
[3]; A375 GP, 10μΜ, 72 h, in %
  cell viability, A375 GP, 10μΜ: 83.5
[4]; IGR37 XP, 10μΜ, 72 h
  cell viability, IGR37 XP, 10μΜ: 43.4%
[4]; IGR37 XP, 1μΜ, 72 h, in %
  cell viability, IGR37 XP, 1μΜ: 103.1
[5]; IGR37 GP, 10μΜ, 72 h
  cell viability, IGR37 GP, 10μΜ: 91.4%
[5]; IGR37 GP, 1μΜ, 72 h, in %
  cell viability, IGR37 GP, 1μΜ: 95.6
[6]; A375 XP, 1μΜ, 72 h, in %
  cell viability, A375 XP, 1μΜ: 107.0
501Mel cells (parental); 501Mel Parental, 10μΜ, in %
  cell viability, 501Mel Parental, 10μΜ: 95.2
IGR37 cells (parental); [7]
  cell viability, IGR37 Parental, 1μΜ: 100.2
IGR37 cells (parental); [8]
  cell viability, IGR37 Parental, 10μΜ: 98.5

## C#Cc1cccc(Nc2ncnc3cc(OCCOC)c(OCCOC)cc23)c1 [Erlotinib HCl]
[1]
  viability at 1 µM: 86.3%
  viability at 10 µM: 38%
[2]
  viability at 1 µM: 95%
  viability at 10 µM: 61.2%
A375 cells (parental)
  viability at 1 µM: 100%
  viability at 10 µM: 73.4%
[3]
  viability at 1 µM: 96.2%
  viability at 10 µM: 69.1%
[4]
  viability at 1 µM: 92.4%
  viability at 10 µM: 51.9%
[5]
  viability at 1 µM: 93.1%
  viability at 10 µM: 67.5%
[6]
  viability at 1 µM: 100%
  viability at 10 µM: 83.4%
501Mel cells (parental)
  viability at 1 µM: 97.2%
  viability at 10 µM: 84.3%
IGR37 cells (parental)
  viability at 1 µM: 95.5%
  viability at 10 µM: 92%

## Cc1cc(Nc2nc(N[C@@H](C)c3ccc(F)cc3)c(C#N)cc2F)[nH]n1 [AZ 960]
[1]
  viability at 1 µM: 39.4%
  viability at 10 µM: 60.4%
[2]
  viability at 1 µM: 34.2%
  viability at 10 µM: 66.8%
A375 cells (parental)
  viability at 1 µM: 48.9%
  viability at 10 µM: 40%
[3]
  viability at 1 µM: 44%
  viability at 10 µM: 37.8%
[4]
  viability at 1 µM: 81.1%
  viability at 10 µM: 39.7%
[5]
  viability at 1 µM: 87.2%
  viability at 10 µM: 73.9%
[6]
  viability at 1 µM: 61.3%
  viability at 10 µM: 46.1%
501Mel cells (parental)
  viability at 1 µM: 49.1%
  viability at 10 µM: 65.1%
IGR37 cells (parental)
  viability at 1 µM: 83.9%
  viability at 10 µM: 90.7%

## O=C1NC(=O)/C(=C\c2ccc3nccnc3c2)S1 [AS-605240]
[1]; 501Mel XP, 1μΜ, in %
  Cell viability in kinase inhibitor library screening, 501Mel XP, 1μΜ: 98.5
[1]; 501Mel XP, 10μΜ, in %
  Cell viability in kinase inhibitor library screening, 501Mel XP, 10μΜ: 72.2
[2]; 501Mel GP, 1μΜ, in %
  Cell viability in kinase inhibitor library screening, 501Mel GP, 1μΜ: 107.4
[2]; 501Mel GP, 10μΜ, in %
  Cell viability in kinase inhibitor library screening, 501Mel GP, 10μΜ: 73.8
A375 cells (parental); A375 Parental, 10μΜ, 72 h
  Cell viability in kinase inhibitor library screening, A375 Parental, 10μΜ: 76.5
A375 cells (parental); A375 Parental, 1μΜ, 72 h
  Cell viability in kinase inhibitor library screening, A375 Parental, 1μΜ: 99.1
[3]; A375 GP, 1μΜ, 72 h
  Cell viability in kinase inhibitor library screening, A375 GP, 1μΜ: 97.7
[3]; A375 GP, 10μΜ, 72 h
  Cell viability in kinase inhibitor library screening, A375 GP, 10μΜ: 71.1
[4]; IGR37 XP, 1μΜ, 72 h, in %
  Cell viability in kinase inhibitor library screening, IGR37 XP, 1μΜ: 98.2
[5]; IGR37 GP, 10μΜ, 72 h
  Cell viability in kinase inhibitor library screening, IGR37 GP, 10μΜ: 70.4%
[5]; IGR37 GP, 1μΜ, 72 h, in %
  Cell viability in kinase inhibitor library screening, IGR37 GP, 1μΜ: 91.2
[6]; A375 XP, 10μΜ, 72 h
  Cell viability in kinase inhibitor library screening, A375 XP, 10μΜ: 81.1
501Mel cells (parental); 501Mel Parental, 1μΜ, in %
  Cell viability in kinase inhibitor library screening, 501Mel Parental, 1μΜ: 104.7
501Mel cells (parental); 501Mel Parental, 10μΜ, in %
  Cell viability in kinase inhibitor library screening, 501Mel Parental, 10μΜ: 92.3
IGR37 cells (parental); [7]
  Cell viability in kinase inhibitor library screening, IGR37 Parental, 1μΜ: 99.2
IGR37 cells (parental); [8]
  Cell viability in kinase inhibitor library screening, IGR37 Parental, 10μΜ: 94.0

## CCOc1cc2ncc(C#N)c(Nc3ccc(OCc4ccccn4)c(Cl)c3)c2cc1NC(=O)/C=C/CN(C)C [Neratinib (HKI-272)]
[1]; 501Mel XP, 1μΜ, in %
  cell viability, 501Mel XP, 1μΜ: 85.2
[1]; 501Mel XP, 10μΜ, in %
  cell viability, 501Mel XP, 10μΜ: 0.0171
[2]; 501Mel GP, 1μΜ, in %
  cell viability, 501Mel GP, 1μΜ: 103.4
[2]; 501Mel GP, 10μΜ, in %
  cell viability, 501Mel GP, 10μΜ: 64.1
A375 cells (parental); A375 Parental, 1μΜ, 72 h
  cell viability, A375 Parental, 1μΜ: 97.5
A375 cells (parental); A375 Parental, 10μΜ, 72 h
  cell viability, A375 Parental, 10μΜ: 29.0
[3]; A375 GP, 1μΜ, 72 h, in %
  cell viability, A375 GP, 1μΜ: 93.4
[3]; A375 GP, 10μΜ, 72 h, in %
  cell viability, A375 GP, 10μΜ: 4.2
[4]; IGR37 XP, 10μΜ, 72 h
  cell viability, IGR37 XP, 10μΜ: 9.6%
[4]; IGR37 XP, 1μΜ, 72 h, in %
  cell viability, IGR37 XP, 1μΜ: 75.0
[5]; IGR37 GP, 10μΜ, 72 h
  cell viability, IGR37 GP, 10μΜ: 21.6%
[5]; IGR37 GP, 1μΜ, 72 h, in %
  cell viability, IGR37 GP, 1μΜ: 81.2
[6]; A375 XP, 1μΜ, 72 h, in %
  cell viability, A375 XP, 1μΜ: 89.5
[6]; A375 XP, 10μΜ, 72 h, in %
  cell viability, A375 XP, 10μΜ: 10.7
501Mel cells (parental); 501Mel Parental, 1μΜ, in %
  cell viability, 501Mel Parental, 1μΜ: 96.7
501Mel cells (parental); 501Mel Parental, 10μΜ, in %
  cell viability, 501Mel Parental, 10μΜ: 54.8
IGR37 cells (parental); [7]
  cell viability, IGR37 Parental, 1μΜ: 96.7
IGR37 cells (parental); [8]
  cell viability, IGR37 Parental, 10μΜ: 66.7
